Results reported in BigSolDB 2.1.

O=C(N[C@@H](Cc1ccc(O)cc1)C(=O)O)OCC1c2ccccc2-c2ccccc21
solubility (mole fraction)
Details	293.15 K	298.15 K	303.15 K	308.15 K	313.15 K	318.15 K	323.15 K	328.15 K	333.15 K
in acetone	0.0683	0.0723	0.077	0.078	0.0824	0.0901	0.0959	–	–
in acetonitrile	0.00233	0.00272	0.00326	0.00382	0.00432	0.00504	0.00637	0.00781	0.00884
in dimethyl carbonate	0.00346	0.00367	0.0044	0.00477	0.00583	0.00638	0.00747	0.00918	0.0109
in ethyl acetate	0.0129	0.0135	0.014	0.0152	0.0164	0.019	0.0203	0.0222	0.0254
in isobutanol	0.00543	0.00685	0.00823	0.00992	0.0123	0.0146	0.0175	0.0219	0.0279
in isopropanol	0.0147	0.0179	0.0213	0.027	0.0307	0.0385	0.043	0.0546	0.0691
in methyl acetate	0.0155	0.0163	0.0173	0.0177	0.0209	0.0219	0.0249	–	–
in n-butanol	0.0129	0.0151	0.0178	0.0198	0.0231	0.0281	0.0319	0.0385	0.0463
in n-butyl acetate	0.00611	0.00636	0.00688	0.00765	0.00862	0.00933	0.00976	0.0118	0.0124
in n-pentanol	0.0111	0.0121	0.0144	0.0168	0.02	0.0231	0.0244	0.0324	0.0388
in n-propyl acetate	0.00762	0.00799	0.00861	0.00951	0.0104	0.0108	0.0126	0.0138	0.015
in sec-butanol	0.0146	0.018	0.0215	0.0263	0.0323	0.0388	0.0454	0.0538	0.0639
